Structures can show the parent of a compound that is named as a salt.
Test system: mouse models of pressure overload-induced cardiac hypertrophy/heart failure (TAC)
Experiment: Mouse models of pressure overload-induced (TAC) heart failure during acute phase
Assay type: in vivo
Details: TAC mice, 50 mg/kg i.p. immediately after TAC, three hours later
Protocol: Transverse aortic constriction (TAC) was performed as described previously [Date, et al. (2002) The antioxidant N-2-mercaptopropionyl glycine attenuates left ventricular hypertrophy in in vivo murine pressure-overload model. J Am Coll Cardiol 39: 907-912.]. Briefly, 8- to 10-week-old mice were anesthetized with anesthetic (0.3 mg/kg of medetomidine, 4.0 mg/kg of midazolam, and 5.0 mg/kg of butorphanol) administered intraperitoneally, and the proximal portion of the sternum was cut open to visualize the aorta. A 7-0 silk suture was placed around the aortic arch distal to the brachiocephalic artery. The suture was tightened firmly around a blunt 26-gauge needle placed adjacent to the aorta. The needle was then removed, and the chest and overlying skin were closed. Sham-operated mice underwent an identical surgical procedure without ligation of the aortic arch. At the end of the operation, 0.3 mg/kg of atipamezole was administered subcutaneously to reverse medetomidine. FIG. 1 is a schematic diagram of TAC.
To extract total RNA, tissue samples were homogenized using a polytron homogenizer in 1 mL of TriPure reagent (Sigma-Aldrich), and the total RNA was extracted in accordance with the manufacture's protocol. Total RNA extracted from cells was also isolated using 1 mL of TriPure reagent. The quantity and quality of total RNA were determined using a NanoDrop™2000 spectrophotometer (Thermo Scientific).
Total RNA was reverse transcribed by blend primer of random hexamers and oligo-dT 3:1 (volume/volume) using Verso™ cDNA Synthesis Kit (Thermo Fisher Scientific, AB1453A) in accordance with the manufacturer's protocol, and the cDNA was analyzed by qRT-PCR. qRT-PCR measurements used THUNDERBIRD SYBR qPCR Mix (TOYOBO) in accordance with the manufacturer's instructions. Expression levels of messenger RNAs (mRNAs) were normalized by the indicated housekeeping genes, and calculated by the 2^−ΔΔCt method. All analyses were performed using a StepOnePlus real-time PCR system and StepOne Software v2.3 (Applied Biosystems, Inc). […]

Cc1cc(F)ccc1-c1ccc(/N=N/c2cc(S(=O)(=O)O)c3ccccc3c2N)cn1 [KUS121, 4-amino-3-[6-(4-fluoro-2-methylphenyl)pyridine-3-ylazo]naphthalene-1-sulfonic acid sodium salt]
ratio of heart weight to body weight: not significantly affected
mRNA level of BNP (vs 5% glucose control): suppressed the increases
ratio of lung weight to body weight (vs 5% glucose control): suppressed the increases
